Legend:
[1] = Metabolic stability in human liver microsomes; conditions: 1 µM compound; for CLblood, human microsomes: hepatic in vivo blood clearance calculated with well stirred liver model, '(stable)' given beside < 0.01; for Fmax, human microsomes: maximal oral bioavailability calculated with well stirred liver model, 0.5 mg/mL protein, '(stable)' given beside 100
human IRAK4 = target: T1, human IRAK4 (Homo sapiens, UniProt Q9NWZ3); assay: Human IRAK4 kinase activity inhibition assay (IRAK4 TR-FRET assay); format: biochemical; conditions: 1 mM ATP, GST-human IRAK4, average or median values
T1 construct: GST (N); made in house; host or cells: baculovirus-infected Hi5 (BTI-TN-5B1-4) insect cells
T1 sequence (Q9NWZ3 1-460): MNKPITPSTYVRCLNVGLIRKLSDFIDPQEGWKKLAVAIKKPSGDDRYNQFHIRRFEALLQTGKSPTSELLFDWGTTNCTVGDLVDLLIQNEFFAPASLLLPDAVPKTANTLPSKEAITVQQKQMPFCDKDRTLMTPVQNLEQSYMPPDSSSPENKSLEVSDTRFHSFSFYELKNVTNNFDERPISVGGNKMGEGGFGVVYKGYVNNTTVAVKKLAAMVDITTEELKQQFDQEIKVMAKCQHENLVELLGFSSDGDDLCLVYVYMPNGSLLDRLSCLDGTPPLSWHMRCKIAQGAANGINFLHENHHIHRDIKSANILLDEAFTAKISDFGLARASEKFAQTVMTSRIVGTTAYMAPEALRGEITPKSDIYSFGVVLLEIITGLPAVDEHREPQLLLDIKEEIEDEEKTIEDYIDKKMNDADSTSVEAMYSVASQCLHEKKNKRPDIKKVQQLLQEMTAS
Method in brief: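 GST-IRAK4 from insect cells (about 0.2 nM, linear range) was preincubated 15 min with compound (11 concentrations, 20 µM–0.073 nM) in HEPES pH 7.5 with MgCl2 and DTT before kinase reaction on a biotinylated peptide. Phosphopeptide was detected by TR-FRET (Eu anti-mouse-IgG/anti-phosphoserine/streptavidin-XL665, 1 h at 22°C) as the 665/620 nm ratio, normalized to no-compound and no-enzyme controls.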

Row | Structure (SMILES) | CLblood, human microsomes [1] [mL/min/kg] | Fmax, human microsomes [1] [%] | IC50 (human IRAK4) [nM]
1 | O=S1(=O)C[C@H](Nc2nc(N3CC(N4CCOCC4)C3)c3cnn(-c4cccc(C(F)(F)F)c4)c3n2)[C@@H](O)C1 (relative stereo) [Example I-37, rel-(3R,4R)-4-({4-[3-(morpholin-4-yl)azetidin-1-yl]-1-[3-(trifluoromethyl)phenyl]-1H-pyrazolo[3,4-d]pyrimidin-6-yl}amino)tetrahydrothiophene-3-ol 1,1-dioxide] | 0.83 | 97 | 11.5
2 | C[C@H]1CN(c2nc(N[C@H]3C[C@H](S(C)(=O)=O)C3)nc3c2cnn3-c2cccc(C(F)F)c2)C[C@@H]1O (relative stereo) [II-17-1, rel-(3R,4S)-1-(1-[3-(difluoromethyl)phenyl]-6-{[trans-3-(methylsulfonyl)cyclobutyl]-amino}-1H-pyrazolo[3,4-d]pyrimidin-4-yl)-4-methylpyrrolidin-3-ol] | 1.67 | 93 | 2.64
3 | C[C@H]1CN(c2nc(N[C@H]3C[C@H](S(C)(=O)=O)C3)nc3c2cnn3-c2cccc(C(F)F)c2)C[C@@H]1O (single isomer, unassigned) [II-17-2, (3R*,4S*)-1-(1-[3-(difluoromethyl)phenyl]-6-{[trans-3-(methylsulfonyl)cyclobutyl]amino}-1H-pyrazolo[3,4-d]pyrimidin-4-yl)-4-methylpyrrolidin-3-ol] | 4.67 | 79 | 2.1
4 | CCC1(O)CN(c2nc(N[C@@H]3CNC(=O)C3)nc3c2cnn3-c2cccc(C(F)(F)F)c2)C1 [Example I-3-1, (4S)-4-({4-(3-ethyl-3-hydroxyazetidin-1-yl)-1-[3-(trifluoromethyl)phenyl]-1H-pyrazolo[3,4-d]pyrimidin-6-yl}amino)pyrrolidin-2-one] | 7.67 | 65 | 9.76
5 | CC(C)(O)C1CCN(c2nc(N[C@@H]3CCOC3)nc3c2cnn3-c2cccc(C(F)(F)F)c2)CC1 [Example I-16-2, 2-(1-{6-[(3R)-tetrahydrofuran-3-ylamino]-1-[3-(trifluoromethyl)phenyl]-1H-pyrazolo[3,4-d]pyrimidin-4-yl}piperidin-4-yl)propan-2-ol] | 15.3 | 30 | 16.1
6 | O=S1(=O)CC[C@@H](Nc2nc(N3CC(N4CCOCC4)C3)c3cnn(-c4cccc(C(F)(F)F)c4)c3n2)C1 [Example I-22, N-[(3R)-1,1-dioxidotetrahydrothiophen-3-yl]-4-[3-(morpholin-4-yl)azetidin-1-yl]-1-[3-(trifluoromethyl)phenyl]-1H-pyrazolo[3,4-d]pyrimidin-6-amine] | 5.67 | 74 | 99.3
7 | O=C1C[C@H](Nc2nc(N3CCC(N4CCOCC4)CC3)c3cnn(-c4cccc(C(F)(F)F)c4)c3n2)CN1 [Example I-27, (4S)-4-({4-[4-(morpholin-4-yl)piperidin-1-yl]-1-[3-(trifluoromethyl)phenyl]-1H-pyrazolo[3,4-d]pyrimidin-6-yl}amino)pyrrolidin-2-one] | 2.83 | 87 | 7.01
8 | CC(C)(O)C1CCN(c2nc(N[C@H]3CC[C@@H](O)C3)nc3c2cnn3-c2cccc(C(F)(F)F)c2)CC1 [Example I-29, (1R,3S)-3-({4-[4-(2-hydroxypropan-2-yl)piperidin-1-yl]-1-[3-(trifluoromethyl)phenyl]-1H-pyrazolo[3,4-d]pyrimidin-6-yl}amino)cyclopentanol] | 7.17 | 68 | 10.8
9 | CC(C)(O)CC1CN(c2nc(N[C@H]3C[C@@]4(CCN4)C3)nc3c2cnn3-c2cccc(C(F)F)c2)C1 [II-36, 1-(1-{6-[(4r,6s)-1-azaspiro[3.3]heptan-6-ylamino]-1-[3-(difluoromethyl)phenyl]-1H-pyrazolo[3,4-d]pyrimidin-4-yl}azetidin-3-yl)-2-methylpropan-2-ol] | – | – | 2.76
10 | CN1CC[C@H](Nc2nc(N3CCC(C(C)(C)O)CC3)c3cnn(-c4cccc(C(C)(C)O)c4)c3n2)C1 [VI-1, 2-[1-(1-[3-(2-hydroxypropan-2-yl)phenyl]-6-{[(3S)-1-methylpyrrolidin-3-yl]amino}-1H-pyrazolo[3,4-d]pyrimidin-4-yl)piperidin-4-yl]propan-2-ol] | – | – | 77.3

The next lines start with the values.

Row | CLblood, human microsomes [1] [mL/min/kg] | Fmax, human microsomes [1] [%] | IC50 (human IRAK4) [nM] | Structure (SMILES)
11 | – | – | 16.2 | CS(=O)(=O)N1CC(Nc2nc(N3C[C@@H](O)[C@H](F)C3)c3cnn(-c4cccc(C(F)F)c4)c3n2)C1 [II-23, (3R,4R)-1-(1-[3-(difluoromethyl)phenyl]-6-{[1-(methylsulfonyl)azetidin-3-yl]amino}-1H-pyrazolo[3,4-d]pyrimidin-4-yl)-4-fluoropyrrolidin-3-ol]
12 | – | – | 6.15 | O[C@H]1C[C@H](Nc2nc(N3CC(N4CCOCC4)C3)c3cnn(-c4cccc(C(F)F)c4)c3n2)C1 [II-25, trans-3-({1-[3-(difluoromethyl)phenyl]-4-[3-(morpholin-4-yl)azetidin-1-yl]-1H-pyrazolo-[3,4-d]pyrimidin-6-yl}amino)cyclobutanol]
13 | – | – | 73.6 | CC(C)(C(=O)O)C1CN(c2nc(NC3CCS(=O)(=O)CC3)nc3c2cnn3-c2cccc(C(F)F)c2)C1 [II-26, 2-(1-{1-[3-(difluoromethyl)phenyl]-6-[(1,1-dioxidotetrahydro-2H-thiopyran-4-yl)amino]-1H-pyrazolo[3,4-d]pyrimidin-4-yl}azetidin-3-yl)-2-methylpropanoic acid]
14 | – | – | 40 | CCS(=O)(=O)N1CC(Nc2nc(N3CC(CC(C)(C)O)C3)c3cnn(-c4cccc(C(F)F)c4)c3n2)C1 [II-28, 1-[1-(1-[3-(difluoromethyl)phenyl]-6-{[1-(ethylsulfonyl)azetidin-3-yl]amino}-1H-pyrazolo[3,4-d]pyrimidin-4-yl)azetidin-3-yl]-2-methylpropan-2-ol]
15 | – | – | 67.1 | C[C@@]1(O)CCN(c2nc(NC3CN(S(C)(=O)=O)C3)nc3c2cnn3-c2cccc(C(F)F)c2)C1 [II-29, (3R)-1-(1-[3-(difluoromethyl)phenyl]-6-{[1-(methylsulfonyl)azetidin-3-yl]amino}-1H-pyrazolo[3,4-d]pyrimidin-4-yl)-3-methylpyrrolidin-3-ol]
16 | – | – | 16.2 | CC(C)(O)C1CCN(c2nc(NC3CN(S(=O)(=O)C4CC4)C3)nc3c2cnn3-c2cccc(C(F)F)c2)CC1 [II-30, 2-[1-(6-{[1-(cyclopropylsulfonyl)azetidin-3-yl]amino}-1-[3-(difluoromethyl)phenyl]-1H-pyrazolo[3,4-d]pyrimidin-4-yl)piperidin-4-yl]propan-2-ol]
17 | – | – | 56.7 | CCS(=O)(=O)N1CC(Nc2nc(N3CC(N4CCOCC4)C3)c3cnn(-c4cccc(C(F)F)c4)c3n2)C1 [II-32, 1-[3-(difluoromethyl)phenyl]-N-[1-(ethylsulfonyl)azetidin-3-yl]-4-[3-(morpholin-4-yl)azetidin-1-yl]-1H-pyrazolo[3,4-d]pyrimidin-6-amine]
18 | – | – | 16.5 | O[C@@H]1CCN(c2nc(N[C@H]3C[C@H](O)C3)nc3c2cnn3-c2cccc(C(F)F)c2)C1 [II-33, (3R)-1-(1-[3-(difluoromethyl)phenyl]-6-{[(1r,3R)-3-hydroxycyclobutyl]amino}-1H-pyrazolo[3,4-d]pyrimidin-4-yl)pyrrolidin-3-ol]
19 | – | – | 19.1 | CC(C)(O)C1CCN(c2nc(N[C@@H]3CNC(=O)C3)nc3c2cnn3-c2cccc(OC(F)(F)F)c2)CC1 [III-1, (4S)-4-({4-[4-(2-hydroxypropan-2-yl)piperidin-1-yl]-1-[3-(trifluoromethoxy)phenyl]-1H-pyrazolo[3,4-d]pyrimidin-6-yl}amino)pyrrolidin-2-one]
20 | – | – | 11.2 | CS(=O)(=O)[C@H]1C[C@H](Nc2nc(N3C[C@H](O)[C@@H](F)C3)c3cnn(-c4cccc(OC(F)F)c4)c3n2)C1 [IV-5, (3S,4S)-1-(1-[3-(difluoromethoxy)phenyl]-6-{[trans-3-(methylsulfonyl)cyclobutyl]amino}-1H-pyrazolo[3,4-d]pyrimidin-4-yl)-4-fluoropyrrolidin-3-ol]
21 | – | – | 193 | CS(=O)(=O)N1CC(Nc2nc(N3C[C@H](O)[C@@H](F)C3)c3cnn(-c4cccc(OC(F)F)c4)c3n2)C1 [IV-6, (3S,4S)-1-(1-[3-(difluoromethoxy)phenyl]-6-{[1-(methylsulfonyl)azetidin-3-yl]amino}-1H-pyrazolo[3,4-d]pyrimidin-4-yl)-4-fluoropyrrolidin-3-ol]
22 | – | – | 46.4 | O=S1(=O)CCC(Nc2nc(N3C[C@H](O)[C@@H](F)C3)c3cnn(-c4cccc(OC(F)F)c4)c3n2)CC1 [IV-7, (3S,4S)-1-{1-[3-(difluoromethoxy)phenyl]-6-[(1,1-dioxidotetrahydro-2H-thiopyran-4-yl)amino]-1H-pyrazolo[3,4-d]pyrimidin-4-yl}-4-fluoropyrrolidin-3-ol]
